In brackets after ≈: the same amount, converted by molar mass. Like-named read-outs stand apart in the source and are kept apart here.
Legend:
Assay type in all cases: cell-based
S. aureus [1] = experiment: Antimicrobial susceptibility (MIC/MBEC), standard assays in polystyrene wells; details: for MIC: Staphylococcus aureus
S. aureus [2] = experiment: Preventative hydroxyapatite (HA) experiment; details: K-W test, p<0.01; comparator=control; FIG. 16
Description: FIG. 16 depicts the results of a preventative hydroxyapatite (HA) experiment with tested compounds against S. aureus.
FIG. 16 depicts the results of a preventative hydroxyapatite (HA) experiment with tested compounds against S. aureus. […] (K-W test, * p<0.01; comparator=control). The results were obtained using standard assays.

S. aureus biofilm [3] = experiment: Ex vivo rat femur biofilm eradication setting; details: K-W test, p<0.01, comparator=control, FIG. 18B
S. aureus biofilm [4] = experiment: Ex vivo rat femur biofilm prevention setting; details: rat femurs saturated with compound; K-W test, p<0.01; comparator=control; FIG. 18B
Description: (§1) FIG. 18A is a picture of rat femurs saturated with antibiotics or the conjugates after they are introduced to a solution of S. aureus in our ex vivo preventative experimental setting. The more the bone appears red, the more staphylococcal biofilms there are adhered to the surface in those regions.
as §1, with “depicts” for “is”

Aa = experiment: Antimicrobial susceptibility (MIC/MBEC), standard assays in polystyrene wells
[5] = S. aureus, polystyrene wells, read-out: MIC

Compound	MBEC (S. aureus [1]; S. aureus, polystyrene wells) [µg/mL]	MIC (S. aureus [1]; [5]) [µg/mL]	efficacy for preventing the growth of staphylococcal cells on HA (S. aureus [2])	S. aureus biofilm eradication on femurs ex vivo (S. aureus biofilm [3])	S. aureus biofilm prevention on femurs ex vivo (S. aureus biofilm [4])	MBEC (Aa) [µg/mL]	MIC (Aa) [µg/mL]	MIC (S. aureus [1]) [µg/mL]
Cn1nnc(-c2ccc(-c3ccc(N4C[C@H](COC(=O)Nc5ccc(CC(P(=O)(O)O)P(=O)(O)O)cc5)OC4=O)cc3F)cn2)n1 [BCT, (R)-(2-(4-((((3-(3-fluoro-4-(6-(2-methyl-2H-tetrazol-5-yl)pyridin-3-yl)phenyl)-2-oxooxazolidin-5-yl)methoxy)carbonyl)amino)phenyl)ethane-1,1-diyl)bis(phosphonic acid)]	32	16 (≈ 23.6 µM)	–	–	–	–	–	–
Cn1nnc(-c2ccc(-c3ccc(N4C[C@H](COC(=O)c5ccc(CC(P(=O)(O)O)P(=O)(O)O)cc5)OC4=O)cc3F)cn2)n1 [BET, (R)-(2-(4-(((3-(3-fluoro-4-(6-(2-methyl-2H-tetrazol-5-yl)pyridin-3-yl)phenyl)-2-oxooxazolidin-5-yl)methoxy)carbonyl)phenyl)ethane-1,1-diyl)bis(phosphonic acid)]	16	4 (≈ 6.04 µM)	statistically significant efficacy for preventing the growth of staphylococcal cells	significantly prevented or eradicated biofilm growth	significantly prevented or eradicated biofilm growth	–	–	–
O=C(O)c1cn(C2CC2)c2cc(N3CCNCC3)c(F)cc2c1=O [C, Ciprofloxacin]	32	0.5 (≈ 1.51 µM)	–	–	–	8	0.5 (≈ 1.51 µM)	–
CN(C)c1ccc(O)c2c1C[C@H]1C[C@H]3[C@H](N(C)C)C(O)=C(C(N)=O)C(=O)[C@@]3(O)C(O)=C1C2=O [M, Minocycline]	16	0.25 (≈ 0.546 µM)	–	–	–	8	2 (≈ 4.37 µM)	–
Cn1nnc(-c2ccc(-c3ccc(N4C[C@H](CO)OC4=O)cc3F)cn2)n1 [T, Tedizolid]	8	0.5 (≈ 1.35 µM)	–	–	–	–	–	–
CN[C@H](CC(C)C)C(=O)N[C@H]1C(=O)N[C@@H](CC(N)=O)C(=O)N[C@H]2C(=O)N[C@H]3C(=O)N[C@H](C(=O)N[C@H](C(=O)O)c4cc(O)cc(O)c4-c4cc3ccc4O)[C@H](O)c3ccc(c(Cl)c3)Oc3cc2cc(c3O[C@@H]2O[C@H](CO)[C@@H](O)[C@H](O)[C@H]2O[C@H]2C[C@](C)(N)[C@H](O)[C@H](C)O2)Oc2ccc(cc2Cl)[C@H]1O [V, Vancomycin]	8	–	–	–	–	–	–	1 (≈ 0.69 µM)
COc1c(N2C[C@@H]3CCCN[C@@H]3C2)c(F)cc2c(=O)c(C(=O)O)cn(C3CC3)c12 [X, Moxifloxacin]	0.5	0.05 (≈ 0.125 µM)	–	–	–	0.1	0.05 (≈ 0.125 µM)	–

Reference: patent US12285489B2, “Bone targeted antimicrobial oxazolidinone related compounds, formulations thereof, and uses thereof” (priority 2018, dated 2025)
